In publication PMC6407917, “Identification of GSK3186899/DDD853651 as a Preclinical Development Candidate for the Treatment of Visceral Leishmaniasis” (Journal of Medicinal Chemistry, 2018):
pIC50: −log10 of the molar value.

Legend:
Assay in all cases: biochemical
Design in all cases: species or system HEK293/K-562/placenta mixed human extract; Kinobeads chemoproteomic competition binding, quantified by TMT LC-MS/MS, dose response up to 20 uM
TYK2 = TYK2 (Homo sapiens, UniProt P29597)
NEK6 = NEK6 (Homo sapiens, UniProt Q9HC98)
TEC = TEC (Homo sapiens, UniProt P42680)
AURKC = AURKC (Homo sapiens, UniProt Q9UQB9)
MAP3K3 = MAP3K3 (Homo sapiens, UniProt Q99759)
JAK1 = JAK1 (Homo sapiens, UniProt P23458)
AZI2 = AZI2 (Homo sapiens, UniProt Q9H6S1)
MKNK2 = MKNK2 (Homo sapiens, UniProt Q9HBH9)
TP53RK = TP53RK (Homo sapiens, UniProt Q96S44)
EPHA3 = EPHA3 (Homo sapiens, UniProt P29320)
PIM3 = PIM3 (Homo sapiens, UniProt Q86V86)
PRKAB1 = PRKAB1 (Homo sapiens, UniProt Q9Y478)
TGFBR1 = TGFBR1 (Homo sapiens, UniProt P36897)
PRKD3 = PRKD3 (Homo sapiens, UniProt O94806)
STK16 = STK16 (Homo sapiens, UniProt O75716)
IRAK1 = IRAK1 (Homo sapiens, UniProt P51617)
YWHAZ = YWHAZ (Homo sapiens, UniProt P63104)
MAPK3 = MAPK3 (Homo sapiens, UniProt P27361)
TYRO3 = TYRO3 (Homo sapiens, UniProt Q06418)
LATS1 = LATS1 (Homo sapiens, UniProt O95835)
PRKDC = PRKDC (Homo sapiens, UniProt P78527)

Sequence of TGFBR1 (P36897 whole entry): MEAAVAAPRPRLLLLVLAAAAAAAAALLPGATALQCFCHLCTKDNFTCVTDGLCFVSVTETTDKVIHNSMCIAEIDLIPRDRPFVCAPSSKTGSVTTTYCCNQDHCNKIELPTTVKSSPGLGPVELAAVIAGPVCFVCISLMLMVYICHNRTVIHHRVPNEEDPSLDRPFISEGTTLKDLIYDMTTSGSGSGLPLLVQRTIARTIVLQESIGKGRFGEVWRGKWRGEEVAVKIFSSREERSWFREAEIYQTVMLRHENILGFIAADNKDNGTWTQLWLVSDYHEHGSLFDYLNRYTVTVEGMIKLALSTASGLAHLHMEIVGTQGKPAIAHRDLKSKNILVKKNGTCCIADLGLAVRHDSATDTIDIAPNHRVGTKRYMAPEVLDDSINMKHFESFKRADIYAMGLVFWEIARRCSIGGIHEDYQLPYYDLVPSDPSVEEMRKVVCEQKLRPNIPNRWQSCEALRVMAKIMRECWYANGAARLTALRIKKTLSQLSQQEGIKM
Sequence of TYK2 (P29597 whole entry): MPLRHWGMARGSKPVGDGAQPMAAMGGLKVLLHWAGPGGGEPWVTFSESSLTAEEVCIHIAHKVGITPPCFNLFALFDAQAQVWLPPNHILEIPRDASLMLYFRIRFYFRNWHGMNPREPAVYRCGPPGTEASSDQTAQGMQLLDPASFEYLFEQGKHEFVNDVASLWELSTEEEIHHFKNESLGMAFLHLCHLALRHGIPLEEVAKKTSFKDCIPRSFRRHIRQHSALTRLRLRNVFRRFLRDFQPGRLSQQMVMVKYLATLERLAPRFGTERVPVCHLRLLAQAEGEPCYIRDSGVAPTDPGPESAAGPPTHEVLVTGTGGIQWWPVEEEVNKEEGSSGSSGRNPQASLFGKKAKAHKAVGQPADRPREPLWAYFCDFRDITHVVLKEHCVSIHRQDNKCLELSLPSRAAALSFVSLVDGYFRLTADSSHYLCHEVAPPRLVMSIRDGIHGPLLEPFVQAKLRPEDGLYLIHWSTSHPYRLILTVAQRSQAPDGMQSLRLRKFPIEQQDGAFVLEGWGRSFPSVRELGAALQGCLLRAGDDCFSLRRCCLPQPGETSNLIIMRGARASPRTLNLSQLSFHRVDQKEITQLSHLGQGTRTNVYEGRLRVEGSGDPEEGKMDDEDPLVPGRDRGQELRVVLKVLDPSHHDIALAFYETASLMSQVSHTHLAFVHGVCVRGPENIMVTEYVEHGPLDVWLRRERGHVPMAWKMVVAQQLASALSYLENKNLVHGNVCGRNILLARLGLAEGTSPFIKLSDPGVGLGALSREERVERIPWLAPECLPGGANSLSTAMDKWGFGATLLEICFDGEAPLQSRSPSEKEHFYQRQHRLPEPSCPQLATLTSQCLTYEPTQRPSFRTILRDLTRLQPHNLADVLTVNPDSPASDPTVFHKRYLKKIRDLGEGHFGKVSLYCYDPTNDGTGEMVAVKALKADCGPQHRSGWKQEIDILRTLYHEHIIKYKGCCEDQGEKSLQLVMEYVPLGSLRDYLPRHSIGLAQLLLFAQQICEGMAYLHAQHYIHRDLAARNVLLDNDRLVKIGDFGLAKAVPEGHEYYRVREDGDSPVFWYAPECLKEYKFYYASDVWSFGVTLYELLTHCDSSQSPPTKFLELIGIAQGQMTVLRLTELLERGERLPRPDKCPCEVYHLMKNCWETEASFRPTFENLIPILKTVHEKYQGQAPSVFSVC
Sequence of AURKC (Q9UQB9 whole entry): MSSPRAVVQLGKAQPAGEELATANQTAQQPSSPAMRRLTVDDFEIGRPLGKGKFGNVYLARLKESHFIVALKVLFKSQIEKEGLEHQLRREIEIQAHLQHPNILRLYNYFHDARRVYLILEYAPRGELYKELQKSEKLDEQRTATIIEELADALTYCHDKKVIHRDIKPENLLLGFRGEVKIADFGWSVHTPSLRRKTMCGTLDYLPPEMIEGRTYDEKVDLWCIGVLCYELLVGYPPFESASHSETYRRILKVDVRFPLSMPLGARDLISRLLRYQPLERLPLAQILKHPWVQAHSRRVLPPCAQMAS
Sequence of PRKD3 (O94806 whole entry): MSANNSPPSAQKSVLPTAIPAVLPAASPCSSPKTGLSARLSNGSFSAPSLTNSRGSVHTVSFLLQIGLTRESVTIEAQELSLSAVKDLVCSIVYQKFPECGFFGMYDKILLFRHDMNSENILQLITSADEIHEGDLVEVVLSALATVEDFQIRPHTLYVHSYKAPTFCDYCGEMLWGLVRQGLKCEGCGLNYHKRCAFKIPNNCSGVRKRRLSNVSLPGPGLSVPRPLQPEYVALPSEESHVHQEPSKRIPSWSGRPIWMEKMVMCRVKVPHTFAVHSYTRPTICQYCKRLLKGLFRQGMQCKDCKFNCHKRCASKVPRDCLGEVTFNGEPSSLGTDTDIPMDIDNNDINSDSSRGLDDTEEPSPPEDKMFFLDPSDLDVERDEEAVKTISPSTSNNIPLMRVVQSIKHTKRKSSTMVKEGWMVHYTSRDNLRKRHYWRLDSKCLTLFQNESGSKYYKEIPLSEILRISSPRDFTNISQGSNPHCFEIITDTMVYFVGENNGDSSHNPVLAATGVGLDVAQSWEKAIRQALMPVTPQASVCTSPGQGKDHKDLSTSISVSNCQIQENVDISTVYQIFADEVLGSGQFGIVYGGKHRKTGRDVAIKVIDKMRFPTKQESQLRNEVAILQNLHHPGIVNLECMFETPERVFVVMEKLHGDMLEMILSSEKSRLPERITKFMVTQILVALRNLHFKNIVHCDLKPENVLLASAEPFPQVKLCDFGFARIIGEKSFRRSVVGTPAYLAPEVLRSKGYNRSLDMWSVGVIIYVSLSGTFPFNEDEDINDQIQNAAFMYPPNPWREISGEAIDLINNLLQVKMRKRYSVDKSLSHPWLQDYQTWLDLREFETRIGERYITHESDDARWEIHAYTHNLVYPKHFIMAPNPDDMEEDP
Sequence of MKNK2 (Q9HBH9 whole entry): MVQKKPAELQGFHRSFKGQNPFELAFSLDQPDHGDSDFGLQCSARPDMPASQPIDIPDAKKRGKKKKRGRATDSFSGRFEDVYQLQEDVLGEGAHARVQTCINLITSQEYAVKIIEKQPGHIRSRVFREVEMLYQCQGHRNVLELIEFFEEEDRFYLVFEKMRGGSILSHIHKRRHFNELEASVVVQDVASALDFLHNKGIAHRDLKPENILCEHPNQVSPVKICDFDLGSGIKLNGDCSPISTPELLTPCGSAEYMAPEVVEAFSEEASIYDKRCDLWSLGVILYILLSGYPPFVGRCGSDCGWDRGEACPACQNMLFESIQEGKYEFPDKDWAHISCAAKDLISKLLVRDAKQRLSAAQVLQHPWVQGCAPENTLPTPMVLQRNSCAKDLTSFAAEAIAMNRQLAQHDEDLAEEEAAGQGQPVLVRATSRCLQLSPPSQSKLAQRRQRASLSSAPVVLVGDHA
Sequence of YWHAZ (P63104 whole entry): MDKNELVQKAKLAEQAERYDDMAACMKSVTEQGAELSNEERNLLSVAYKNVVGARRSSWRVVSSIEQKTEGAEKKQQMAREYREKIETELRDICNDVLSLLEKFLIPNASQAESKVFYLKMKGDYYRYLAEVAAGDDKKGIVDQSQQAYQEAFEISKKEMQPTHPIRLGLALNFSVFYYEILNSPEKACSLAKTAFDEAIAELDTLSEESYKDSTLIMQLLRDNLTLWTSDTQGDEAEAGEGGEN
Sequence of TEC (P42680 whole entry): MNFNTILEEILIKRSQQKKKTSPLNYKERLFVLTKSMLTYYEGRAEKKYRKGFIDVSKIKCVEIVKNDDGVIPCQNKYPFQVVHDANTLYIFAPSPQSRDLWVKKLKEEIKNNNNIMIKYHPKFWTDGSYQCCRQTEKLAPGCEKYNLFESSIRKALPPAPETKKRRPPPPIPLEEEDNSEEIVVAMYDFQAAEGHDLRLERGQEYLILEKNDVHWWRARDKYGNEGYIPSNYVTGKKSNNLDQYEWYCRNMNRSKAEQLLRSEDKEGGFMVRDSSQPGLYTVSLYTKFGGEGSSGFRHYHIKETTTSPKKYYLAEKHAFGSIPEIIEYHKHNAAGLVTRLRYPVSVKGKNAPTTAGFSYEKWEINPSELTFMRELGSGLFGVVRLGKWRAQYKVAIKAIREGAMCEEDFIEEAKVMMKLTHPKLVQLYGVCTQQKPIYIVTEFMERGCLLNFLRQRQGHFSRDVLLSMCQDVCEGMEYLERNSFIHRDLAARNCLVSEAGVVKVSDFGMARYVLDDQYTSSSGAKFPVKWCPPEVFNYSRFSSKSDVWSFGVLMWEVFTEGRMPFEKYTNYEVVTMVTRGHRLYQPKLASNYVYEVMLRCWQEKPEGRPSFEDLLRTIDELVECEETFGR
Sequence of PRKAB1 (Q9Y478 whole entry): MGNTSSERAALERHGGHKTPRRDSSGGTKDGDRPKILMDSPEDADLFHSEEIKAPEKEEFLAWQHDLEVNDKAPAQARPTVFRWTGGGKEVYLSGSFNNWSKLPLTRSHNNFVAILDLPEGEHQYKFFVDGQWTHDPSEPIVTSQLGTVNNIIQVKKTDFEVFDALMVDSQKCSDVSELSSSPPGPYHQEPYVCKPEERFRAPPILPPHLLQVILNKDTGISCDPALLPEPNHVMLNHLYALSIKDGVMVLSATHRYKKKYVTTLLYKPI

pIC50 (TYK2): ≤ 4.70
pIC50 (NEK6): ≤ 4.70
pIC50 (TEC): ≤ 4.70
pIC50 (AURKC): ≤ 4.70
pIC50 (MAP3K3): ≤ 4.70
pIC50 (JAK1): ≤ 4.70
pIC50 (AZI2): ≤ 4.70
pIC50 (MKNK2): ≤ 4.70
pIC50 (TP53RK): ≤ 4.70
pIC50 (EPHA3): ≤ 4.70
pIC50 (PIM3): ≤ 4.70
pIC50 (PRKAB1): ≤ 4.70
pIC50 (TGFBR1): ≤ 4.70
pIC50 (PRKD3): ≤ 4.70
pIC50 (STK16): ≤ 4.70
pIC50 (IRAK1): ≤ 4.70
pIC50 (YWHAZ): ≤ 4.70
pIC50 (MAPK3): ≤ 4.70
pIC50 (TYRO3): ≤ 4.70
pIC50 (LATS1): ≤ 4.70
pIC50 (PRKDC): ≤ 4.70
SMILES: COc1ccccc1-c1n[nH]c2nc(N[C@H]3CC[C@H](NS(=O)(=O)CCC(F)(F)F)CC3)nc(OC)c12 [compound 31, 3,3,3-Trifluoro-N-(trans-4-((4-methoxy-3-(2-methoxyphenyl)-1H-pyrazolo[3,4-d]pyrimidin-6-yl)amino)cyclohexyl)propane-1-sulfonamide]
